Measured values published in US20190119357A1, “MESSENGER RIBONUCLEIC ACIDS FOR THE PRODUCTION OF INTRACELLULAR BINDING POLYPEPTIDES AND METHODS OF USE THEREOF” (ModernaTX, Inc., priority 2015, published 2019).

How the values were obtained:
[1] = system: systemic TF1a xenografts; assay: Systemic TF1a xenografts in SCID mice (AML model); type: in vivo; conditions: TF1a-SCID; mRNA LNPs 3 mg/kg one time per week, cytarabine 2 mg/kg three times per week, IV, four weeks
Method: LNPs comprising the cationic lipid MC3 were tested using the optimal percentage of PEG-lipid and optimal PEG length (1.5% DSPE, C18, as described in Example 8), for in vivo targeted delivery of SQT-PUMA-BH3 in two different in vivo models of acute myeloid leukemia (AML). One model used systemic TF1a xenografts in SCID mice. The other model used systemic HEL xenografts in SCID mice. Each of these models uses a human erythroleukemia cell line. The HEL erythroleukia cell line is described in, for example, Martin, P. and Papayannopoulou, T. (1982) Science 216:1233-1235. The TF1 erythroleukmia cell line (from which TF1a is derived) is described in, for example, Kitamura, T. et al. (1989) J. Cell. Physiol. 140:323-334. Unless otherwise noted, mRNAs were fully modified with N1-methlypseudouridine to avoid stimulating an innate immune response to said mRNAs when administered in vivo.
In a first set of experiments, TF1a cells stably expressing luciferase (TF1α-luc cells) were implanted systemically in SCID mice. Tumor growth was measured by whole body bioluminescent imaging (BLI) in anaesthetized animals following SC injection of 150 mg/kg D-Luciferin, in an imaging chamber (Spectrum CT). Animals showing an increasing tumor burden at day 12 post-cell implantation were recruited for treatment. […]

[2] = system: MCL1; assay: MCL1 downregulation by Western blotting in Hep3B cells; type: cell-based, human; conditions: 24 hours, sorafenib 10 uM
Method: A first series of experiments was conducted to determine whether specific targeting of MCL1 recapitulates sorafenib synergy with SQT-BH3 in cells in vitro.

[3] = system: Hep3B SC tumors; assay: Combination with sorafenib in SCID mice bearing Hep3B SC tumors; type: in vivo; conditions: Sorafenib 10 mg/kg orally daily alone, three weeks, end of study
Method: SCID mice bearing Hep3B SC tumors (tumor size range 140-227 mm^3; average=183 mm^3) were dosed over a three week period with a combination of 0.5% methyl cellulose daily and SQT IV at 1.5 mg/kg alone weekly (Days 1, 8 and 15; Group 1), Sorafenib (in 0.5% methyl cellulose) at 10 mg/kg orally daily alone (Group 2), mmRNA encoding SQT-PUMA-BH3 (comprising a miR122 binding site) weekly at 1.5 mg/kg IV alone (Group 3) or a combination of mmRNA encoding SQT-PUMA-BH3 (with miR122 binding site) at 1.5 mg/kg IV weekly with sorafenib at 10 mg/kg orally daily (Group 4; 10 animals per group).

Row | SMILES | systemic tumor growth (BLI) [1] | MCL1 level (Western blotting) [2] | tumor growth inhibition (TGI) [3] [%]
1 | Nc1ccn([C@@H]2O[C@H](CO)[C@@H](O)[C@@H]2O)c(=O)n1 [cytarabine, reference compound] | did inhibit systemic tumor growth | – | –
2 | CNC(=O)c1cc(Oc2ccc(NC(=O)Nc3ccc(Cl)c(C(F)(F)F)c3)cc2)ccn1 [sorafenib, reference compound] | – | downregulates MCL1 | 38
